Values quoted from earlier work as cited in US20130191933A1, “METHODS OF TREATING PAIN AND MORPHINE TOLERANCE VIA MODULATION OF HEDGEHOG SIGNALLING PATHWAY” (BOARD OF REGENTS, THE UNIVERSITY OF TEXAS SYSTEM, priority 2010, published 2013).
Entries after “also recorded” stand apart in the source; their conditions may differ. Like-named read-outs stand apart in the source and are kept apart here.

Assays:
Smo = Smo (Homo sapiens, UniProt Q99835); conditions: cited from earlier work
[1] = system: Gli1, Gli2, PtchI and other Shh-target genes; conditions: in a variety of cell types; cited from earlier work
[2] = system: Gli-mediated transcription; conditions: in a variety of cell types (Cur-61414: cell and tissues types; Robotnikinin: also synthetic human tissue); cited from earlier work
Shh = Shh (Homo sapiens, UniProt Q15465); conditions: cited from earlier work
Sequence of Shh (Q15465 24-462, species assumed): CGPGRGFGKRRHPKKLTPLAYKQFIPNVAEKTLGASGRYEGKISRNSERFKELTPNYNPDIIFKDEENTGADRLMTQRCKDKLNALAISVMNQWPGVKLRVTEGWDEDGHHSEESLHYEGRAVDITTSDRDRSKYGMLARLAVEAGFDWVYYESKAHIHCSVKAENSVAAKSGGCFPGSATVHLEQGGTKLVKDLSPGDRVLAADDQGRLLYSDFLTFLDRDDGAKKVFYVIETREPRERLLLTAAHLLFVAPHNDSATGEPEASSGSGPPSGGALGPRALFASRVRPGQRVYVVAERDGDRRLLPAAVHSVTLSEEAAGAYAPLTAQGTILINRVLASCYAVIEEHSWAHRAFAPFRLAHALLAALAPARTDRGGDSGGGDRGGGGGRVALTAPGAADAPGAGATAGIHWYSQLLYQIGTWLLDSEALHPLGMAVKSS

Sequence of Smo (Q99835 28-787): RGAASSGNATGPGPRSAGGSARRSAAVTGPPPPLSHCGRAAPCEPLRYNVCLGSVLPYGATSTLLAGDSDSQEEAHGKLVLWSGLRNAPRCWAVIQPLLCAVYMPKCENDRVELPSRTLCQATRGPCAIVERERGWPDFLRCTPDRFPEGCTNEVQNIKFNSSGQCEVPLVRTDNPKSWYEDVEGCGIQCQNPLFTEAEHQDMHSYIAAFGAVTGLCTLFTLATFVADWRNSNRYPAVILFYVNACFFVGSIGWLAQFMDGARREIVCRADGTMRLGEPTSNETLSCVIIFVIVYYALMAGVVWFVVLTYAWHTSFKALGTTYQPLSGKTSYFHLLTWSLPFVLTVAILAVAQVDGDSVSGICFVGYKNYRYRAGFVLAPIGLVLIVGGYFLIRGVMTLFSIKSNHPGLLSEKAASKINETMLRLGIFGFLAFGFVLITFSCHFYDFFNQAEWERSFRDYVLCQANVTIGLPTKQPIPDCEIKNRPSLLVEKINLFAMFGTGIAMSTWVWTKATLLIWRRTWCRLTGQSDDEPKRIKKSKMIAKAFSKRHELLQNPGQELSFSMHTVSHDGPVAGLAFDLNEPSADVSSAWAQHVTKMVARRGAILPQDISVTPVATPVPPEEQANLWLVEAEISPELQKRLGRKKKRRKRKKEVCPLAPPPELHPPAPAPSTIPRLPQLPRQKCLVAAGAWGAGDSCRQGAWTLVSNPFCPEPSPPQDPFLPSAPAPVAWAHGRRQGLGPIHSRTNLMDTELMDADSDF

Structure (SMILES)	targeting / binding of Smo (Smo)	targeting / binding of Smo (Smo; listed as jervine)	transcription of Gli1, Gli2, PtchI and other Shh-target genes [1]	Gli-mediated transcription [2]	direct binding to Shh (Shh)
CC1=C2C(=O)[C@H]3[C@@H](CC=C4C[C@@H](O)CC[C@@]43C)[C@@H]2CC[C@]12O[C@@H]1C[C@H](C)CN[C@H]1[C@H]2C [Jervine]	Targets Smo	target Smo	Inhibits transcription of Gli1, Gli2, PtchI and other Shh-target		
O=C(C[C@@H]1C/C=C/CCC(=O)O[C@H](c2ccccc2)CNC1=O)NCc1ccc(Cl)cc1 [Robotnikinin]				Represses Gli-medicated transcription in a variety of cell types and	binds directly to Sonic Hedgehog; also recorded: Binds directly to Shh
